The OPERA property sets (Mansouri et al. 2018)
In brackets after ≈: the same amount, converted by molar mass.

Details: not given

| logP | Structure (SMILES) |
| --- | --- |
| 9.32 | CCCCCCCC/C=C\CCCCCCCCCCCC(=O)OC |
| 6.29 | CC/C=C\C/C=C\C/C=C\CCCCCCCC(=O)OC |
| 6.82 | CCCCC/C=C\C/C=C\CCCCCCCC(=O)OC |
| 6.11 | CCCCCCCCCCCC(=O)OCCC |
| 5.71 | CCCCCCCCCCCC(=O)OCC |
| 5.41 | CCCCCCCCCCCC(=O)OC |
| 9.3 | CCCCCCCCCCCCCCCCCCCC(=O)OC |

More lines, now with the values behind:

| Structure (SMILES) | logP |
| --- | --- |
| CCCCCCCCCCCC(=O)OCCCC | 6.51 |
| CCCCCCCCCCCCCC(=O)OC | 6.41 |
| CCCCCCCCCCCCCCCCCC(=O)OC | 8.35 |
| CCCCCCCCCCCCCCCC(=O)OC | 7.38 |
| CCCCCCCCCCCCCCCCCCCCCC(=O)OC | 10.2 |
| CCCCCCCC/C=C\CCCCCCCC(=O)OC | 7.45 |
| CCCCCCCCCCCC(=O)OCC(CC)CCCC (stereo not given) | 8.03 |

Same assay, conditions: 25 °C

| solubility | Structure (SMILES) |
| --- | --- |
| 0.011 µM (≈ 2.4 ng/mL) | CCCCCCCCCCc1ccccc1 |
